Patent publication US10342796B2, “Acrylanilide derivative, preparation method, and applications thereof in pharmacy” (Ancureall Pharmaceutical (Shanghai) Co., Ltd., priority 2015, dated 2019)

Columns and labels:
Experiment in all cases: Growth inhibition GI50 in vitro (CCK8/MTT, 72 h)
Format in all cases: cell-based, human
H1975 (EGFR L858R/T790M) = settings: Homo sapiens, NCI-H1975; EGFR mutant cell line; range of GI50; read-out: GI50 H1975
HCC827 (EGFR dE746-A750) = settings: Homo sapiens, HCC827; EGFR mutant cell line; range of GI50; read-out: GI50 HCC827
PC-9 (EGFR dE746-A750) = settings: Homo sapiens; EGFR mutant cell line; range of GI50; read-out: GI50 PC-9
[1] = tested on: PC-9ER (EGFR delE746-A750/T790M); settings: Homo sapiens, PC-9/ER; EGFR mutant cell line; range of GI50; read-out: GI50 PC9ER
N87 (HER2 Amp) = settings: Homo sapiens; HER2 positive cell line; range of GI50; read-out: GI50 N87
AU565 (Her2 amp) = settings: Homo sapiens, AU565; HER2 positive cell line; range of GI50; read-out: GI50 AU-565
SK-BR-3 (Her2 amp) = settings: Homo sapiens, SK-BR-3; HER2 positive cell line; range of GI50; read-out: GI50 SK-BR-3
Method: Human lung adenocarcinoma cell line Calu-3 (ATCC) was cultured with 1×MEM complete medium (10% FBS, 1% double-antibiotics, 1% NEAA (Gibco), 2 mM glutamine and 1 mM of sodium pyruvate). Human breast cancer cell line SK-BR-3 was cultured with McCOY'S5A complete medium (10% FBS). Human colon cancer cell line SNU1040 (HER2 V777M positive) (ATCC) and human bronchoalveolar adenocarcinoma cell line NCI-H1781 (expressing HER2 exon 20 G776VC mutation) (ATCC) were cultured with 1×RPMI1640 complete medium (10% FBS), respectively.
The suspension cells were collected by centrifugation. The supernatant was discard and the cell pellet was resuspended and counted. Different cell concentrations (5˜10×10^4 cells/mL) were prepared according to the growth cycle of each cell line and then seeded on a 96-well plate (Corning), 100 μL/well. The cells were incubated over night at 37° C., 5% CO2. The compounds were added to the cells on the second day with 2 wells in parallel. The final concentration of organic solvent shall not exceed 1%. The cells were continually incubated for 72 h, and then subjected to MTT assay.
The present compounds and the reference compounds were dissolved with DMSO (Sigma), respectively. […] The storage concentration of compounds was 10 mM and kept at −20° C. They were diluted by 2 times or 10 times with serial dilution before using.
Dojindo CCK8 reagent kit was used as MTT assay. […] FC meter was used as microplate reader.
Adherent cell culture medium was discard and immediately replaced with fresh prepared medium which contains 10% CCK8 reagent (100 μL/well). For the suspension cells, CCK8 was directly added to 10% of the final concentration. The cells were continually incubated for 1˜4 h. When the color of control wells turned to dark yellow, the absorption value was measured at OD450 nm. The cell growth rate was calculated according to the following formula: cell growth rate (%)=100*(T−T0)/(C−T0), T=optical density of drug treatment cell well—optical density of blank control well; T0=optical density of cell well before drug treatment—optical density of blank control well; C=optical density of cell well of solvent control group—optical density of blank control well. […] The experiment was independently repeated 1˜3 times, and subject to biological statistical analysis.

[2] = tested on: A431 (EGFR WT, amplification and high expression); settings: Homo sapiens, A-431; EGFR wild type cell line; range of GI50; read-out: GI50 A431
A549 (EGFR WT) = settings: Homo sapiens, A549; EGFR wild type cell line; range of GI50; read-out: GI50 A549
[3] = tested on: H1299 (EGFR wt, Nras Q61K); settings: Homo sapiens, NCI-H1299; EGFR wild type cell line; range of GI50; read-out: GI50 H1299
[4] = tested on: H460 (EGFR wt, Kras G61H); settings: Homo sapiens, NCI-H460; EGFR wild type cell line; range of GI50; read-out: GI50 H460

Row | Compound | GI50 (H1975 (EGFR L858R/T790M)) [nM] | GI50 (HCC827 (EGFR dE746-A750)) [nM] | GI50 (PC-9 (EGFR dE746-A750)) [nM] | GI50 [1] [nM] | GI50 (SK-BR-3 (Her2 amp)) [nM] | GI50 [2] [nM] | GI50 (A549 (EGFR WT)) [nM] | GI50 [3] [nM] | GI50 [4] [nM] | GI50 (N87 (HER2 Amp)) [nM] | GI50 (AU565 (Her2 amp)) [nM]
1 | C=CC(=O)Nc1cc(Nc2nccc(-n3ccc4cc(F)c(F)cc43)n2)c(OC)cc1N(C)CCN(C)C [Compound 103, N-(5-(4-(5,6-difluoro-1H-indol-1-yl)-pyrimidin-2-ylamino)-2-(2-(dimethylamino-ethyl)-methyl-amino)-4-methoxyl-phenyl)-acrylamide] | 10 to 100 | 10 to 100 | 10 to 100 | 10 to 100 | 100 to 1000 | 100 to 1000 | > 1000 | > 1000 | > 1000 | 10 to 100 | 100 to 1000
2 | C=CC(=O)Nc1cc(Nc2nccc(-n3nnc4ccccc43)n2)c(OC)cc1N(C)CCN(C)C [Compound 107] | 10 to 100 | 10 to 100 | 10 to 100 | 10 to 100 | 10 to 100 | > 1000 | > 1000 | > 1000 | > 1000 | 10 to 100 | 100 to 1000
3 | C=CC(=O)Nc1cc(Nc2ncnc(Nc3ccc(F)c(Cl)c3)n2)c(OC)cc1N(C)CCN(C)C [Compound 109, N-(5-(4-(3-chloro-4-fluoro-phenylamino)-[1,3,5]triazin-2-ylamino)-2-((2-dimethylamino-ethyl)-methyl-amino)-4-methoxyl-phenyl)-acrylamide] | 10 to 100 | 10 to 100 | 10 to 100 | 10 to 100 | 10 to 100 | 100 to 1000 | > 1000 | > 1000 | > 1000 | 10 to 100 | 10 to 100
4 | C=CC(=O)Nc1cc(Nc2ncnc(Nc3cccc(Cl)c3F)n2)c(OC)cc1N(C)CCN(C)C [Compound 110, N-(5-(4-(3-chloro-2-fluoro-phenylamino)-[1,3,5]triazin-2-ylamino)-2-((2-dimethylamino-ethyl)-methyl-amino)-4-methoxyl-phenyl)-acrylamide] | 10 to 100 | < 10 | < 10 | < 10 | 10 to 100 | 100 to 1000 | > 1000 | > 1000 | > 1000 | < 10 | 10 to 100
5 | C=CC(=O)Nc1cc(Nc2ncnc(Nc3cccc(C(F)(F)F)c3)n2)c(OC)cc1N(C)CCN(C)C [Compound 113, N-(5-(4-(3-trifluoromethyl-phenylamino)-[1,3,5]triazin-2-ylamino)-2-((2-dimethylamino-ethyl)-methyl-amino)-4-methoxyl-phenyl)-acrylamide] | 10 to 100 | < 10 | < 10 | < 10 | 100 to 1000 | 100 to 1000 | > 1000 | > 1000 | > 1000 | 10 to 100 | 10 to 100
6 | C=CC(=O)Nc1cc(Nc2cc(Nc3ccc(F)c(Cl)c3)ncn2)c(OC)cc1N1CCC(N2CCOCC2)CC1 [Compound 143, N-(5-(6-(3-chloro-4-fluoro-phenylamino)-pyrimidin-4-ylamino)-4-methoxyl-2-(4-morpholin-4-yl-piperidin-1-yl)-phenyl)-acrylamide] | < 10 | < 10 | < 10 | < 10 | < 10 | 10 to 100 | > 1000 | > 1000 | > 1000 | < 10 | < 10
7 | C=CC(=O)Nc1cc(Nc2cc(Nc3ccc(F)c(Cl)c3)ncn2)c(OC)cc1N1CCCN(C)CC1 [Compound 144, N-(5-(6-(3-chloro-4-fluoro-phenylamino)-pyrimidin-4-ylamino)-2-(4-methyl-[1,4]diazepin-1-yl)-4-methoxyl-phenyl)-acrylamide] | < 10 | < 10 | < 10 | < 10 | < 10 | 10 to 100 | > 1000 | > 1000 | > 1000 | < 10 | < 10

The next lines start with results.

Row | GI50 (H1975 (EGFR L858R/T790M)) [nM] | GI50 (HCC827 (EGFR dE746-A750)) [nM] | GI50 (PC-9 (EGFR dE746-A750)) [nM] | GI50 [1] [nM] | GI50 (SK-BR-3 (Her2 amp)) [nM] | GI50 [2] [nM] | GI50 (A549 (EGFR WT)) [nM] | GI50 [3] [nM] | GI50 [4] [nM] | Compound | GI50 (N87 (HER2 Amp)) [nM] | GI50 (AU565 (Her2 amp)) [nM]
8 | 10 to 100 | < 10 | < 10 | < 10 | 10 to 100 | 100 to 1000 | > 1000 | > 1000 | > 1000 | C=CC(=O)Nc1cc(Nc2ncnc(Nc3cccc(Cl)c3)n2)c(OC)cc1N(C)CCN(C)C [Compound 108, N-(5-(4-(3-chloro-phenylamino)-[1,3,5]triazin-2-ylamino)-2-((2-dimethylamino-ethyl)-methyl-amino)-4-methoxyl-phenyl)-acrylamide] | < 10 | 10 to 100
9 | < 10 | < 10 | < 10 | < 10 | < 10 | 10 to 100 | > 1000 | > 1000 | > 1000 | C=CC(=O)Nc1cc(Nc2cc(Nc3cccc(Br)c3)ncn2)c(OC)cc1N(C)CCN(C)C [Compound 133, N-(5-(6-(3-bromophenylamino)-pyrimidin-4-ylamino)-2-((2-dimethylamino-ethyl)-methyl-amino)-4-methoxyl-phenyl)-acrylamide] | < 10 | < 10
10 | 10 to 100 | < 10 | < 10 | 10 to 100 | 10 to 100 | 100 to 1000 | > 1000 | > 1000 | > 1000 | C=CC(=O)Nc1cc(Nc2cc(Nc3cccc(C(F)(F)F)c3)ncn2)c(OC)cc1N(C)CCN(C)C [Compound 134] | 10 to 100 | 10 to 100
11 | < 10 | < 10 | < 10 | < 10 | < 10 | 10 to 100 | > 1000 | > 1000 | > 1000 | C#Cc1cccc(Nc2cc(Nc3cc(NC(=O)C=C)c(N(C)CCN(C)C)cc3OC)ncn2)c1 [Compound 135, N-(5-(6-(3-alkynyl-phenylamino)-pyrimidin-4-ylamino)-2-((2-dimethylamino-ethyl)-methyl-amino)-4-methoxyl-phenyl)-acrylamide] | 10 to 100 | < 10
12 | 10 to 100 | < 10 | < 10 | < 10 | < 10 | 100 to 1000 | > 1000 | > 1000 | > 1000 | C=CC(=O)Nc1cc(Nc2cc(Nc3cc(F)cc(Br)c3)ncn2)c(OC)cc1N(C)CCN(C)C [Compound 139, N-(5-(6-(3-bromo-5-fluoro-phenylamino)-pyrimidin-4-ylamino)-2-((2-dimethylamino-ethyl)-methyl-amino)-4-methoxyl-phenyl)-acrylamide] | < 10 | < 10
